Data as given in paper PMC4589779 (Scientific Reports, 2015).
Where two headings read alike, the source gives them in different places.

Assays:
[1] = system: HEK293T cells; assay: Cell proliferation assay (WST-1) in HEK293T cells; assay type: cell-based; conditions: for anti-proliferative effect in combination with CDCA: 24 h, NSAIDs 5, 25, 50 μM combined with CDCA (50 μM); for toxicity compared with HepG2 cells: 48 h
Experimental: (§1) WST-1 assay (Roche Diagnostics International AG, Rotkreuz, Switzerland) was performed according to manufacturer’s protocol. In brief, HepG2 cells were seeded in DMEM high glucose, supplemented with sodium pyruvate (1 mM), penicillin (100 U/mL), streptomycin (100 μg/mL) and 10% FCS in 96-well plates (3 · 10^4 cells/well). HEK293T cells were seeded in DMEM high glucose, supplemented with sodium pyruvate (1 mM), penicillin (100 U/mL), streptomycin (100 μg/mL) and 10% FCS in 96-well plates (2,5 · 10^4 cells/well). After 24 h, medium was changed to DMEM high glucose, supplemented with penicillin (100 U/mL), streptomycin (100 μg/mL) and 1% charcoal stripped FCS and cells were incubated with varying concentrations of test compounds, Revlotron (100 μM) as positive control and DMEM/0,1% DMSO as negative control. […] […] After 45 min incubation, absorption (450 nm/reference: 620 nm) was determined with a Tecan Infinite M200 luminometer (Tecan Deutschland GmbH). Each experiment was repeated at least four times in triplicates.

[2] = system: CYP7A1 mRNA; parameters: method as in PMID 25631039; conditions: HepG2 cells, with 50 μM CDCA; cited from earlier work
[3] = system: HepG2 cells; assay: Cell proliferation assay (WST-1) in HepG2 cells; conditions: for no toxic effect on cell viability up to (concentration): 6 hours incubation, alone or in combination with CDCA (50 μM); for effect on cell viability: 6 hours, 25 μM NSAID and CDCA (50 μM); for concentrations that are considerably toxic: summing up of the WST-1 toxicity data (HepG2 and HEK293T)
Experimental: as §1

[4] = biological target: T1, FXR-LBD protein (residues 244–472) (Homo sapiens, UniProt Q96RI1)
T1 sequence (Q96RI1 244-472 isoform Q96RI1-2): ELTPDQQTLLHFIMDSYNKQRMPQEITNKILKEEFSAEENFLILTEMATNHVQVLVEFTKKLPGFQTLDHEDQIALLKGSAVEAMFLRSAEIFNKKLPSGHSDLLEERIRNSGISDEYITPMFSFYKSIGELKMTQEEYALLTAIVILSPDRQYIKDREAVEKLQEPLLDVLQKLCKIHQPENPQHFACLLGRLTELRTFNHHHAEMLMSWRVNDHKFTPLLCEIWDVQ
Source text: The thermal shift method is widely used to assess ligand binding. A thermal shift assay usually measures the melting temperature of a protein with or without a ligand by monitoring a fluorescent dye. In an aqueous solution of folded protein the dye signal is low due to quenching of the dye fluorescence in water, but with increasing temperature the protein unfolds and exposes its hydrophobic core regions. The fluorescent dye is then bound to the hydrophobic surfaces and fluorescence increases.
Thermal Shift assay was performed in clear 96-well plates (Invitrogen) using SYPRO Orange (Invitrogen Darmstadt, Germany) as dye. […] Temperature-dependent fluorescence increase reporting protein denaturation was measured in duplicates in an ICycler (Bio-Rad) from 20 to 90 °C in steps of 0.2 °C per minute at […] and 570 nm emission wavelength. Each experiment was independently repeated four times. The first derivative of the melting curves was calculated using the Graph Pad Prism 5 software.

[5] = biological target: T2, FXR (Homo sapiens, UniProt Q96RI1); assay: Full-length FXR reporter gene assay in HeLa cells (BSEP promotor, RXRα); assay type: cell-based
T2 construct: is based on the complete FXR receptor (CMV promoter); expressed in transfected cells; host or cells: HeLa
T2 sequence (Q96RI1 1-486): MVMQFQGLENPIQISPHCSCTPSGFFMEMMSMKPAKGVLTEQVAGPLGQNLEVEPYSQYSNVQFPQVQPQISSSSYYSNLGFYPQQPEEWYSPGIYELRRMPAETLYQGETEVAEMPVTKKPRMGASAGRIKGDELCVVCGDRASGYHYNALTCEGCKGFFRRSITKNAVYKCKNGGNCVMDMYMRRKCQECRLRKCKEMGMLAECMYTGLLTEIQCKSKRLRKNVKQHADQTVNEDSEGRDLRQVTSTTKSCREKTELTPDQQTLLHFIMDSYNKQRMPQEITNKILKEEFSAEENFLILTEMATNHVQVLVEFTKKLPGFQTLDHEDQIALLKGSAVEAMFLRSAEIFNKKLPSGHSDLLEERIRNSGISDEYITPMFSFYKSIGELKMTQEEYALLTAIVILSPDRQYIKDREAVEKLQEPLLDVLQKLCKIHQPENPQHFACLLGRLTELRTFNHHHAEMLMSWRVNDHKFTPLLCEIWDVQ
T2 sequence (P19793 1-462 partner): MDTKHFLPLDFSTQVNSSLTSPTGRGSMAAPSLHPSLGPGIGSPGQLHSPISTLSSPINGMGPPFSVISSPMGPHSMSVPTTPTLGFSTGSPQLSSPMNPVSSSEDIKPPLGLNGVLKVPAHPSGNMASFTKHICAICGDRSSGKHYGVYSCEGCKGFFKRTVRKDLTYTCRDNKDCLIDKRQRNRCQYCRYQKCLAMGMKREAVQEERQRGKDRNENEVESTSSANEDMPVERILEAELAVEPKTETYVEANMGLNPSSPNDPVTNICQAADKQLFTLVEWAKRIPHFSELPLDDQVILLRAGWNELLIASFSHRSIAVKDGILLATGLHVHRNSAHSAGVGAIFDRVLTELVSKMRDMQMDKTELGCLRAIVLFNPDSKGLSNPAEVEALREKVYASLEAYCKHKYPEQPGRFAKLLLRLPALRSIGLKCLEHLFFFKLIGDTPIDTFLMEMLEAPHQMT
Experimental: Luminescence was measured with a Tecan Infinite M200 luminometer (Tecan Deutschland GmbH, Crailsheim, Germany). […] Fold activation was obtained by dividing the mean RLU of the tested compound at a respective concentration by the mean RLU of untreated control.

[6] = system: small hetero-dimer partner (SHP) mRNA; assay: FXR target gene quantification by qRT-PCR in HepG2 cells: SHP; assay type: cell-based
Experimental: (§2) Quantification of the expression of FXR target genes in non-transfected cells offers the least artificial way to characterize the activity of a FXR ligand in vitro. […] As investigated genes we selected the direct FXR target genes bile salt export protein (BSEP) and small hetero-dimer partner (SHP) which allows a specific conclusion whether a FXR-dependent effect is present. […] We then quantified the mRNA of FXR target genes BSEP and SHP by qRT-PCR.
HepG2 cells were seeded in DMEM high glucose, supplemented with 10% FCS, SP (1 mM), penicillin (100 U/mL) and streptomycin (100 μg/mL) at 37 °C and 5% CO2 in 6-well plates (2 · 10^6 per well). 24 h after seeding, medium was changed to MEM, supplemented with 1% charcoal-stripped FCS, penicillin (100 U/mL), streptomycin (100 μg/mL) and L-glutamine (2 mM). After additional 24 h, medium was changed again to MEM, now additionally containing 0.1% DMSO and the respective test compounds or 0.1% DMSO alone as untreated control. Cells were incubated with the test compounds for 6 h, harvested, washed with cold phosphate buffered saline (PBS) and then directly used for RNA extraction. […]
FXR target gene expression was evaluated by quantitative PCR analysis with a StepOnePlusTM System (Life Technologies) using PowerSYBRGreen (Life Technologies; 12.5 μL per well) and the following primers[17] […] The expression was quantified by the comparative ΔΔCt method.

[7] = Cell proliferation assay (WST-1) in HepG2 cells; conditions: human, HepG2 cells
Experimental: as §1

[8] = system: bile salt export protein (BSEP) mRNA
Experimental: as §2
HepG2 cells were seeded in DMEM high glucose, supplemented with 10% FCS, SP (1 mM), penicillin (100 U/mL) and streptomycin (100 μg/mL) at 37 °C and 5% CO2 in 6-well plates (2 · 10^6 per well). 24 h after seeding, medium was changed to MEM, supplemented with 1% charcoal-stripped FCS, penicillin (100 U/mL), streptomycin (100 μg/mL) and L-glutamine (2 mM). After additional 24 h, medium was changed again to MEM, now additionally containing 0.1% DMSO and the respective test compounds or 0.1% DMSO alone as untreated control. Cells were incubated with the test compounds for 6 h, harvested, washed with cold phosphate buffered saline (PBS) and then directly used for RNA extraction.
Total RNA was extracted from HepG2 cells by the Total RNA Mini Kit (R6834-02, Omega Bio-Tek, Inc., Norcross, GA, USA). RNA was reverse-transcribed into cDNA using the High-Capacity cDNA Reverse Transcription Kit (4368814, Thermo Fischer Scientific, Inc., Waltham, MA, USA) with 2 μg RNA according to the manufacturer’s protocol.
FXR target gene expression was evaluated by quantitative PCR analysis with a StepOnePlusTM System (Life Technologies) using PowerSYBRGreen (Life Technologies; 12.5 μL per well) and the following primers[17] (300 nM each): SHP: 5′-[…] (forward) and 5′-[…] (reverse); BSEP: 5′-[…] (forward) and 5′-[…] (reverse). Results were normalized to GAPDH Ct values. Sequences of the GAPDH primers were as follows: 5′-[…] (forward) and 5′- […] (reverse). Each sample was set up in duplicates and repeated in at least four independent experiments. The expression was quantified by the comparative ΔΔCt method.

[9] = biological target: T3, fusion receptor of the FXR ligand binding domain and a Gal4 DNA binding domain (Homo sapiens, UniProt Q96RI1)
T3 sequence (Q96RI1 262-486 limits assumed): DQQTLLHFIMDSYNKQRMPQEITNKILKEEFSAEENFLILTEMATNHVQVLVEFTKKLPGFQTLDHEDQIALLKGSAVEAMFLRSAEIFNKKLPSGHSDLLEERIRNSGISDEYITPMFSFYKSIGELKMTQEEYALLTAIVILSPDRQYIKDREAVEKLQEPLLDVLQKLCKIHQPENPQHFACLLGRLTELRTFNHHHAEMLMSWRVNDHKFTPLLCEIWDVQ
Experimental: Luminescence was measured with an Infinite M200 luminometer (Tecan Deutschland GmbH). […] Fold activation was obtained by dividing the mean RLU of a test compound at a respective concentration by the mean RLU of untreated control.

[10] = 10 or 30 μM in competition with GW4064 (3 μM), OCA (3 μM) and CDCA (20 μM)

SMILES: CC(C)Cc1ccc(C(C)C(=O)O)cc1 (centres unmarked) [ibuprofen]
- anti-proliferative effect in combination with CDCA [1]: considerable anti-proliferative effects
- induction of CYP7A1 expression (increase in mRNA levels) [2]: 1.7 fold
- no toxic effect on cell viability up to (concentration) ([3]; HepG2 cells): up to 100 μM
- effect on cell viability ([3]; HepG2 cells): did not affect cell viability
- no toxicity up to (concentration) ([3]; HepG2 cells, 48 h): up to 50 μM

SMILES: CC(C)c1onc(-c2c(Cl)cccc2Cl)c1COc1ccc(/C=C/c2cccc(C(=O)O)c2)c(Cl)c1 [GW4064]
- concentrations that robustly stabilize the FXR-LBD ([4]; 5 μM FXR-LBD, ratio to protein ≥20:1): ≥ 100 µM

SMILES: O=C(O)Cc1ccccc1Nc1c(Cl)cccc1Cl [diclofenac, diclofenac sodium]
- agonistic activity ([5]; 10 or 30 μM alone): None
- competitive antagonistic activity [5, 10]: None
- anti-proliferative effect in combination with CDCA [1]: considerable anti-proliferative effects
- toxicity compared with HepG2 cells [1]: even higher toxicity
- antagonistic effect on SHP expression ([6]; 25 μM and 50 μM in competition with CDCA (50 μM), 6 h): did not observe any antagonistic effect
- effect on SHP expression ([6]; 50 μM alone, 6 h incubation): did not affect the expression
- stabilization of the FXR-LBD ([4]; 500 μM alone, ratio to protein 100:1): did not stabilize the FXR-LBD
- antagonism of the stabilization of the FXR-LBD by GW4064 ([4]; 500 μM in competition with GW4064 (100 μM, ratio 20:1)): did not antagonize the stabilization
- effect on cell viability ([3]; HepG2 cells): did not affect cell viability
- concentrations with anti-proliferative activity / slight toxicity ([3]; HepG2 cells, 48 h): ≥ 10 µM
- concentrations that are considerably toxic [3]: ≥ 30 µM
- viability at 6 h, 30 μM [7]: 85 ± 2%
- viability at 6 h, 50 μM [7]: 75 ± 2%
- effect on BSEP expression [8]: did not affect the expression
- activity of the control gene (renilla luciferase) [9]: toxicity driven decrease
- agonistic activity ([9]; 10 or 30 μM alone): None
- competitive antagonistic activity [9, 10]: None

SMILES: COc1ccc2c(c1)c(CC(=O)O)c(C)n2C(=O)c1ccc(Cl)cc1 [indometacin]
- anti-proliferative effect in combination with CDCA [1]: considerable anti-proliferative effects
- toxicity compared with HepG2 cells [1]: even higher toxicity
- induction of CYP7A1 expression (increase in mRNA levels) [2]: 9 fold
- no toxic effect on cell viability up to (concentration) ([3]; HepG2 cells): up to 50 μM
- effect on cell viability ([3]; HepG2 cells): did not affect cell viability
- concentrations with anti-proliferative activity / slight toxicity ([3]; human, 48 h): ≥ 10 µM
- concentrations that are considerably toxic [3]: ≥ 30 µM
- antagonistic effect on BSEP expression ([8]; HepG2 cells, 25 μM and 50 μM in competition with CDCA (50 μM), 6 h): did not observe any antagonistic effect
- effect on BSEP expression ([8]; HepG2 cells, 50 μM alone, 6 h incubation): did not affect the expression
